Assay results reported in paper PMC6100724, “Proteome‐wide analysis of phospho‐regulated PDZ domain interactions” (Molecular Systems Biology, 2018).

Experiments:
Assay in all cases: Phosphomimetic ProP-PD selection with NGS
DLG1 PDZ2 = target: T1, DLG1 PDZ2 (Homo sapiens, UniProt Q12959); assay type: binding; conditions: mean of selections 1-3, bait DLG1 PDZ2
T1 construct: human DLG1 PDZ2 aa 311–407 in a modified pRSET vector 40; made in house; host or cells: E. coli BL21 Gold (DE3)
Outline: (§1)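 Targets coated overnight at 4°C, BSA-blocked; phage library (10^11 cfu) pre-cleared on GST 1 h, then bound to target 2 h at 8°C. Four washes, elution by log-phase E. coli, helper-phage amplification; four rounds total. Pre-phosphorylated wild-type library selections ran in HBS (50 mM HEPES pH 7.4, 150 mM NaCl).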

Scribble PDZ1 = target: T2, Scribble PDZ1 (Homo sapiens, UniProt Q14160); assay type: binding; conditions: bait Scribble PDZ1; mean of selections 1-3
T2 construct: human Scribble PDZ1 aa 719–829 in; made in house; host or cells: E. coli BL21 Gold (DE3)
Outline: as §1

DLG1 PDZ3 = assay type: binding, human; conditions: mean of selections 1-3; bait DLG1 PDZ3
Outline: as §1

Scribble PDZ2 = assay type: binding, human; conditions: bait Scribble PDZ2; mean of selections 1 and 2 (selection 3 empty)
Outline: as §1

DLG1 PDZ1 = assay type: binding, human; conditions: mean of selections 1-3, bait DLG1 PDZ1; for Mean fraction #NGS counts wt peptide / total counts selection: wild type peptide; for Mean fraction #NGS counts mimetic peptide / total count selection: phosphomimetic peptide
Outline: as §1

Scribble PDZ3 = assay type: binding, human; conditions: mean over selections 1-3; bait Scribble PDZ3
Outline: as §1

T2 sequence (Q14160 719-829): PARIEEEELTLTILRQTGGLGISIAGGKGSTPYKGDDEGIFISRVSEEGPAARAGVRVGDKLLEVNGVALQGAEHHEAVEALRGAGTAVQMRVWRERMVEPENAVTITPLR
T1 sequence (Q12959 311-407): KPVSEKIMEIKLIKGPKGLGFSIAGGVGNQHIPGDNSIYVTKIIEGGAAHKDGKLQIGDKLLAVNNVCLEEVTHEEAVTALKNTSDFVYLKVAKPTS

Mean fraction #NGS counts wt peptide / total counts selection (DLG1 PDZ2)	Mean fraction #NGS counts wt peptide / total counts selection (Scribble PDZ1)	Mean fraction #NGS counts mimetic peptide / total count selection (DLG1 PDZ2)	Mean fraction #NGS counts mimetic peptide / total count selection (Scribble PDZ1)	Mean fraction #NGS counts wt peptide / total counts selection (DLG1 PDZ2; wild type peptide)	Sequence	Mean fraction #NGS counts wt peptide / total counts selection (DLG1 PDZ3)	Mean fraction #NGS counts wt peptide / total counts selection (Scribble PDZ2)	Mean fraction #NGS counts wt peptide / total counts selection (DLG1 PDZ1)	Mean fraction #NGS counts wt peptide / total counts selection (Scribble PDZ3)	Mean fraction #NGS counts mimetic peptide / total count selection (DLG1 PDZ3)	Mean fraction #NGS counts mimetic peptide / total count selection (Scribble PDZ2)	Mean fraction #NGS counts mimetic peptide / total count selection (DLG1 PDZ1)	Mean fraction #NGS counts mimetic peptide / total count selection (Scribble PDZ3)
0.5055	0.0001002	–	–	–	VWLRKETRV	0.8949	0.008925	0.4163	0.009414	–	–	–	–
–	–	3.584e-5	0	–	VWLRKEERV	–	–	–	–	9.275e-5	0	0	0
0.04339	0.0005451	–	–	–	LPKIKETTV	0.008422	–	0.004479	0.004275	–	–	–	–
–	4.38e-5	0	–	5.408e-5	HSIKQSTAV	0	0.0003798	0.0004538	5.205e-5	–	–	–	–
–	–	0	0	–	LPKIKEETV	–	–	–	–	0	–	3.0718e-6	0
–	–	0.01768	6.299e-5	–	HSIKQETAV	–	–	–	–	0.0006363	0.001519	0.0009534	0.0001468
